Some test systems named below: ACHN renal; A498 renal; CAKI-1 renal; LOX IMVI melanoma; SNB-75 CNS; EKVX NSCLC; BT-549 breast; DU-145 prostate.
What all share (test): DTP human tumour cell line panel, 48 h

Where “and” joins values, the source holds several entries; their conditions need not be identical. Identical values can stand only once.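 Five concentrations, 48 hours, 96-well plates. Here, GI50 denotes the concentration required for 50% inhibition of growth. Definition used: TGI = concentration required for complete inhibition of growth.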

The values that follow come from PubChem BioAssay (NCI).

As a reminder, the GI50 is the concentration at which growth is held to half of that of the control. By TGI is commonly meant the concentration at which net growth stops. Lower therefore signals more potent growth arrest. Turning to `c1cc[c]([Pb]([c]2ccccc2)[c]2ccccc2)cc1`, the GI50 in the test with ACHN renal was 33.4 µM; with A498 renal, 16 µM; in the test on CAKI-1 renal, 30 µM; with LOX IMVI melanoma, 3.24 µM; with SNB-75 CNS it was 6.8 µM; with EKVX NSCLC, 25.2 µM. In addition, the TGI in the test on ACHN renal was more than 100 µM; with A498 renal it was 46.2 µM; in the test with CAKI-1 renal it was more than 100 µM; in the test with SNB-75 CNS, 45 µM; in the test with EKVX NSCLC it was 76.8 µM.
Regarding `CON(C)C(=O)N1N=C(c2cc(F)ccc2F)SC1(CCCN)c1ccccc1` (configuration not stated), the GI50 was 7.79 µM and 4.91 µM in the test with ACHN renal; 0.0452 µM and < 0.01 µM in the test on A498 renal; 0.238 µM in the test with CAKI-1 renal; 0.024 µM and < 0.01 µM with LOX IMVI melanoma; 0.0531 µM and < 0.01 µM in the test on SNB-75 CNS; 0.302 µM in the test with BT-549 breast. In addition, the GI50 in the test on DU-145 prostate is 0.0336 µM and < 0.01 µM. For the same molecule, the concentration for total growth inhibition (TGI) in the test on ACHN renal is 22.5 µM and 21.8 µM; in the test with A498 renal, 13.5 µM and 13.4 µM; with CAKI-1 renal it was 17.3 µM and 18.1 µM; in the test on LOX IMVI melanoma it was 17.5 µM and 16.4 µM; in the test on SNB-75 CNS, 16.2 µM and 15 µM; with BT-549 breast, 17.5 µM. Further, the TGI with DU-145 prostate is 11.8 µM and 11.3 µM.
For the molecule `COc1ccc(/C(Cl)=C(\C=O)c2ccc([N+](=O)[O-])cc2)cc1`, the TGI in the test on ACHN renal was 70.5 µM; in the test with A498 renal, 74.1 µM; in the test on CAKI-1 renal, 33.8 µM; with LOX IMVI melanoma it was more than 48.1 µM; with SNB-75 CNS it was 30.9 µM; in the test with EKVX NSCLC it was more than 68.8 µM.
As for `COc1ncc(-c2ccc3ncnc(Nc4cccc(Cl)c4)c3c2)cc1NS(=O)(=O)CCN1CCOCC1`, the concentration for 50% growth inhibition (GI50) in the test on CAKI-1 renal was 0.345 µM; with SNB-75 CNS it was less than 0.01 µM; in the test on DU-145 prostate it was 0.297 µM. For the same molecule, the values for the concentration for total growth inhibition (TGI) in the test with CAKI-1 renal, in the test on SNB-75 CNS and in the test with DU-145 prostate were more than 100 µM, 0.739 µM and more than 100 µM, respectively.
As to `COC(=O)c1c(C)[nH]c(/C=C2\N=C(c3ccc[nH]3)C=C2OC)c1C`, the 50% growth inhibitory concentration (GI50) with ACHN renal was 0.189 µM; in the test on A498 renal, 2.64 µM; in the test with SNB-75 CNS it was 0.399 µM; in the test with BT-549 breast it was 0.199 µM; in the test on DU-145 prostate, 0.426 µM; in the test on EKVX NSCLC it was 1.07 µM. Moreover, the concentration for total growth inhibition (TGI) is 1.43 µM in the test with ACHN renal; 10.7 µM in the test on A498 renal; 3.24 µM in the test on SNB-75 CNS; 3.04 µM in the test with BT-549 breast; more than 100 µM in the test with DU-145 prostate; 3.28 µM in the test with EKVX NSCLC.
With `N.N.O=C([O-])P(=O)([O-])[O-].[Na+].[Pt+4]`, the GI50 in the test on ACHN renal, in the test on A498 renal, in the test with CAKI-1 renal, in the test on SNB-75 CNS and in the test on EKVX NSCLC was more than 100 µM each time. The concentration for total growth inhibition (TGI) in the test with ACHN renal, in the test with A498 renal, in the test on CAKI-1 renal, with SNB-75 CNS and with EKVX NSCLC was more than 100 µM each time.
Take `C/C=C(\C)CC/C=C/CO[Si](C)(C)C(C)(C)C`: the TGI in the test on ACHN renal is more than 100 µM; in the test on A498 renal, more than 100 µM; in the test with CAKI-1 renal, more than 100 µM; with LOX IMVI melanoma, 49.9 µM; in the test on SNB-75 CNS, more than 100 µM; in the test on DU-145 prostate it was more than 100 µM. In the test on EKVX NSCLC, this molecule had a TGI of more than 100 µM.
As for `COc1ccc(OC)c(C(=O)c2oc3ccc(Br)cc3c2N)c1`, the GI50 in the test on ACHN renal was 0.627 µM; in the test on A498 renal it was 0.0923 µM; in the test on CAKI-1 renal, 0.372 µM; in the test on LOX IMVI melanoma, 0.581 µM; in the test on SNB-75 CNS, 0.253 µM; in the test with BT-549 breast, 0.584 µM. In addition, the GI50 in the test with DU-145 prostate was 0.604 µM. In addition, the concentration for total growth inhibition (TGI) is more than 65.1 µM in the test on ACHN renal; 1.56 µM in the test with A498 renal; more than 100 µM in the test with CAKI-1 renal; 22.4 µM in the test on LOX IMVI melanoma; 1.68 µM with SNB-75 CNS; 21.1 µM in the test with BT-549 breast. The same molecule displayed a concentration for total growth inhibition (TGI) in the test on DU-145 prostate of 17.3 µM.
As to `CNc1nc(N)c(N=O)c(Nc2ccc(Br)cc2)n1`, the total growth inhibition concentration (TGI) in the test on ACHN renal, in the test on LOX IMVI melanoma, with SNB-75 CNS, with BT-549 breast, with DU-145 prostate and in the test with EKVX NSCLC was more than 100 µM each time.
Take `COC1=CC2(C=CC1=O)c1cc(OC)c(OC)cc1CCN2C(=O)c1ccccc1` (configuration not stated): the TGI in the test with ACHN renal, with A498 renal, in the test with CAKI-1 renal, in the test on LOX IMVI melanoma, in the test on SNB-75 CNS and with EKVX NSCLC was more than 100 µM each time.
With `Cn1c2ccccc2c2c3[nH]c(=O)[nH]c(=O)c3c3c4ccccc4n(C)c3c21`, the GI50 was 1.33 µM in the test on ACHN renal; 0.0475 µM with A498 renal; 2.13 µM in the test with LOX IMVI melanoma; 1.49 µM in the test on SNB-75 CNS; 2.83 µM with BT-549 breast; 1.51 µM in the test on DU-145 prostate. The GI50 in the test on EKVX NSCLC was 2.54 µM. For the same molecule, the TGI was 6.62 µM in the test on ACHN renal; 4.37 µM in the test on A498 renal; 11.9 µM with LOX IMVI melanoma; 3.27 µM in the test with SNB-75 CNS; 18.7 µM with BT-549 breast; more than 100 µM in the test on DU-145 prostate. For the same molecule, the TGI with EKVX NSCLC is 47.2 µM.
With `COc1ccc(-n2cc(-c3cc(OC)c(OC)c(OC)c3)[nH]c2=O)cc1Cl`, the GI50 with ACHN renal was more than 100 µM; with A498 renal, 73.9 µM; in the test with CAKI-1 renal, more than 100 µM; in the test on LOX IMVI melanoma it was more than 100 µM; with SNB-75 CNS it was 6.69 µM; with EKVX NSCLC, more than 100 µM. For the same molecule, the TGI in the test on ACHN renal was more than 100 µM; in the test with A498 renal, more than 100 µM; in the test with CAKI-1 renal, more than 100 µM; with LOX IMVI melanoma, more than 100 µM; in the test with SNB-75 CNS, 28.8 µM; in the test with EKVX NSCLC, more than 100 µM.
Take `CCC(=O)c1c(C(F)(F)F)n([O-])c2ccc(C)cc2[n+]1=O`: the GI50 is 5.02 µM in the test on ACHN renal; 5.78 µM in the test on CAKI-1 renal; 7.47 µM in the test on LOX IMVI melanoma; 15.9 µM in the test on SNB-75 CNS; 1.35 µM in the test on BT-549 breast; 5.99 µM in the test on DU-145 prostate. In the test with EKVX NSCLC, the GI50 is 1.52 µM. Further, the TGI in the test with ACHN renal is 14.2 µM; with CAKI-1 renal, 16.2 µM; in the test on LOX IMVI melanoma, 17.9 µM; in the test on SNB-75 CNS, more than 50 µM; with BT-549 breast it was 5.43 µM; in the test on DU-145 prostate it was 16.6 µM. Further, the concentration for total growth inhibition (TGI) in the test on EKVX NSCLC amounted to 6.09 µM.
